Results from patent US7320879B2, “Method of determining site-specificity and kit therefor” (Biacore AB, priority 2002, dated 2008).

Legend:
[1] = biological target: T1, HSA (Homo sapiens, UniProt P02768); experiment: SPR (BIACORE S51) competition assay for HSA-binding site specificity, dissociation-phase response of mixtures; conditions: for effect of additional reference compounds on dissociation response of S1 on HSA: S1 constant 0.1 μM, reference 0-50 μM, d2 report point, FIG. 6
T1 construct: purchased Sigma A-4327
T1 sequence (P02768 25-609): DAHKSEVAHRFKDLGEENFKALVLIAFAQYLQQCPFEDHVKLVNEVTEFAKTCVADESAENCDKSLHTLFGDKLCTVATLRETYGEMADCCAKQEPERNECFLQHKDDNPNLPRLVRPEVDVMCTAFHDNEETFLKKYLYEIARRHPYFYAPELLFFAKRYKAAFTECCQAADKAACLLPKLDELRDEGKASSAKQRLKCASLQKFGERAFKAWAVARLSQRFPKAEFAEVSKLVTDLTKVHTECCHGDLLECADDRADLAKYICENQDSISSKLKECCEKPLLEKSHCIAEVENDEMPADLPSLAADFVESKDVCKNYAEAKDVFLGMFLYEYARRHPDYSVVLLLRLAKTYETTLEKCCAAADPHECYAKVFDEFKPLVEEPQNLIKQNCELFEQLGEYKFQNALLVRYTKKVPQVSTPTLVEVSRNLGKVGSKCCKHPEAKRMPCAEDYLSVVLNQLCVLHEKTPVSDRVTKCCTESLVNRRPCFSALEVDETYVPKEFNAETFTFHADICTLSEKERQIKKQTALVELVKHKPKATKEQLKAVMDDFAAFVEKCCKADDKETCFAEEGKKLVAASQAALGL

[2] = system: protein kinase (C-terminal His-tag); experiment: SPR binding profiles of binders against captured protein kinase, single concentration; conditions: 10 μM ATP; FIG. 8
Source text: A BIACORE® S51 instrument (Biacore AB, Uppsala, Sweden) was used. This instrument has two Y-type flow cells which allow a dual flow of fluids over a sensor chip surface, so-called hydrodynamic addressing, as described in, for example, EP-B1-1021703 (the disclosure of which is incorporated by reference herein). The instrument uses three parallel detection spots on the sensor chip. As sensor chip was used Series S Sensor Chip CM5 (Biacore AB, Uppsala, Sweden) which has a gold-coated surface with a covalently linked carboxymethyl-modified dextran polymer hydrogel. The output from the instrument is a “sensorgram” which is a plot of detector response (measured in “resonance units”, RU) as a function of time. An increase of 1000 RU corresponds to an increase of mass on the sensor surface of approximately 1 ng/mm^2.
100 μg/ml of Penta-His™ antibody, BSA-free (Qiagen, Venlo, Netherlands) in 0.15 M NaCl was diluted to 30 μg/ml in 10 mM sodium acetate buffer pH 5.0 and immobilized on a Series S Sensor Chip CM5 by amine coupling according to the manufacturer's instructions. The contact time was 10 min, the flow rate was 10 μl/min, and 10 mM PBS was used as running buffer. A little less than 12000 RU of antibody were immobilized. […]

[3] = biological target: T1, HSA; conditions: known site specificity of reference compounds (crystallography studies); cited from earlier work

Row | Structure (SMILES) | effect of the reference compound on binding/dissociation phase of S1 on HSA [1] | association/dissociation profile on the protein kinase [2] | effect of additional reference compounds on dissociation response of S1 on HSA [1] | known HSA-binding site [3]
1 | C[C@H]1O[C@@H](O[C@H]2[C@@H](O)C[C@H](O[C@H]3[C@@H](O)C[C@H](O[C@H]4CC[C@@]5(C)[C@H](CC[C@@H]6[C@@H]5CC[C@]5(C)[C@@H](C7=CC(=O)OC7)CC[C@]65O)C4)O[C@@H]3C)O[C@@H]2C)C[C@H](O)[C@@H]1O [digitoxin] | does not seem to affect the dissociation phase much | – | – | –
2 | Nc1ncnc2c1ncn2[C@@H]1O[C@H](COP(=O)(O)OP(=O)(O)OP(=O)(O)O)[C@@H](O)[C@H]1O [ATP, adenosine triphosphate] | – | very rapid binding and dissociation profile | – | –
3 | O=C1NC(=O)C(c2ccccc2)(c2ccccc2)N1 [phenyloin] | – | – | follow the behaviour of warfarin and naproxen respectively | site II
4 | COc1cc(NS(=O)(=O)c2ccc(N)cc2)nc(OC)n1 [sulfadimethoxine] | – | – | deviates from the behaviour of warfarin | site I
